pEC50: −log10 of the molar value.
What was measured:
F508delCFTR [1] = molecular target: T1, F508delCFTR (Homo sapiens, UniProt P13569, DEL508-508); assay: Cell Surface Expression-Horse Radish Peroxidase (CSE-HRP) assay, test compound with co-corrector; type: cell-based; conditions: with 2 μM co-corrector; for Maximum % activity (with co-corrector): maximum at any tested concentration, normalized to positive control;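 for Maximum % activity (with co-corrector): percent of 2 µM positive control corrector over DMSO; co-corrector is that same compound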
T1 construct: expressed in transfected cells; host or cells: CFBE41o- human lung-derived epithelial cells (CFBE41o-F508delCFTR-HRP), doxycycline-inducible
T1 sequence (P13569 with tags, fused parts or gaps DEL508-508): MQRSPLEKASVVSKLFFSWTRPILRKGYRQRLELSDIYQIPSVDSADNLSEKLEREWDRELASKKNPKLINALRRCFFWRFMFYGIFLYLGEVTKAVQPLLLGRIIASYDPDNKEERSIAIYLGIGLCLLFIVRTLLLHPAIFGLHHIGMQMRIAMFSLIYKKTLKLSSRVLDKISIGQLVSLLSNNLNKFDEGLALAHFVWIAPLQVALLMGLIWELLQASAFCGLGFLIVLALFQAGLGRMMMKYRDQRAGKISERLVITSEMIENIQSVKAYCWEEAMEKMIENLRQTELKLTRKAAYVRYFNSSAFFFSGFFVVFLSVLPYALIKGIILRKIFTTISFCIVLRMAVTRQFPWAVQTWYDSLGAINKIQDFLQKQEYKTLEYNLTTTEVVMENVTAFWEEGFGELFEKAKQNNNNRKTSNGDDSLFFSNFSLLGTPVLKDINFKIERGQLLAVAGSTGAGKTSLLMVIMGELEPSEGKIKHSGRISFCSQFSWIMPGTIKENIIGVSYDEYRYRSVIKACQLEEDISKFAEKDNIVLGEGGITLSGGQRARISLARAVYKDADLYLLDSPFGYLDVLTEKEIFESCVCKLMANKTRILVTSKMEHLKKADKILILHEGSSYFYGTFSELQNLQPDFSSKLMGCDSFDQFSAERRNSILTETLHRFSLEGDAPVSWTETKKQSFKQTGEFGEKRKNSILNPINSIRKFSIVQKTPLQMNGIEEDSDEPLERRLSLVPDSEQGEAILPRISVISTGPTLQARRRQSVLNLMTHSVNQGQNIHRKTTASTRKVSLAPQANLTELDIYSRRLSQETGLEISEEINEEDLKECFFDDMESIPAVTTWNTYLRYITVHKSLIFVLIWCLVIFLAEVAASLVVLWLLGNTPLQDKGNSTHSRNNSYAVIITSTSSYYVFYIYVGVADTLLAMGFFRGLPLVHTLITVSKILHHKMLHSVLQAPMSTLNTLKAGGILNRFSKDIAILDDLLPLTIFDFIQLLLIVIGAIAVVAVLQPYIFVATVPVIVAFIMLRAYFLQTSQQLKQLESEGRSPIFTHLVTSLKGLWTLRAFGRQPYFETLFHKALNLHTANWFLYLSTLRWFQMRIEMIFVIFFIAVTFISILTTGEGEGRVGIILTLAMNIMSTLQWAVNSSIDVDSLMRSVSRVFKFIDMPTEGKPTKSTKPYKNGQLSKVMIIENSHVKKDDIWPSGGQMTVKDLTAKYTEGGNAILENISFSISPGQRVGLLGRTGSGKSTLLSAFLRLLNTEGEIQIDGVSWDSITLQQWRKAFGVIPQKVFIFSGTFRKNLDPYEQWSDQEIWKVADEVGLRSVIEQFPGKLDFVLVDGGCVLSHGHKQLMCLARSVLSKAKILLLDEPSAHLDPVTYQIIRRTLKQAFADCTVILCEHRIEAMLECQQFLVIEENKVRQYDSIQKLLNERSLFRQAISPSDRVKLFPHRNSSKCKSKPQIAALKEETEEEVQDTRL
Method in brief: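 CFBE41o- cells expressing F508delCFTR with HRP in the fourth exofacial loop, induced with 0.5 μg/mL doxycycline for 72 h, then treated 18-24 h at 33° C. with compound (8 points, top 20 μM, 3-fold) plus 2 μM co-corrector. Surface HRP read by luminol luminescence; activity normalised to positive control, EC50 from variable-slope sigmoidal fit.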

F508delCFTR [2] = molecular target: T1, F508delCFTR; assay: Cell Surface Expression-Horse Radish Peroxidase (CSE-HRP) assay, test compound without co-corrector; type: cell-based; conditions: for Emax: maximum at any tested concentration, normalized to positive control, without co-corrector; for pEC50: test compound without co-corrector;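 for Emax: percent of on-plate 2 µM positive control corrector response over DMSO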
Method in brief: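 CFBE41o- cells expressing F508delCFTR with HRP in the fourth exofacial loop, induced with 0.5 μg/mL doxycycline for 72 h at 37° C, then exposed to compound alone for 18-24 h at 33° C, 8-point 3-fold series from 20 μM. Surface HRP read by luminol luminescence, normalized to positive corrector control versus DMSO; EC50 from variable-slope sigmoidal fit of three replicate plates.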

| Maximum % activity (with co-corrector) (F508delCFTR [1]) | pEC50 (F508delCFTR [1]) | Emax (F508delCFTR [2]) [%] | pEC50 (F508delCFTR [2]) | Structure (SMILES) |
| --- | --- | --- | --- | --- |
| ++ (≥150 and <350) | > 5.52 | < 50 | > 5.52 | CCC1(C(=O)NS(=O)(=O)c2ccc(Br)c3ccccc23)CCc2c(Cl)cccc21 (stereo not drawn) [II-76] |
| ++ (≥150 and <350) | > 5.52 | < 50 | > 5.52 | CCC1(C(=O)NS(=O)(=O)c2ccc(F)c3ccccc23)CCc2c(Cl)cccc21 (stereo not drawn) [II-77] |
| +++ (≥350) | > 5.52 | 50 to 150 | > 5.52 | CCC1(C(=O)NS(=O)(=O)c2cccc3c(Br)cccc23)CCc2c(Cl)cccc21 (stereo not drawn) [II-78] |
| ++ (≥150 and <350) | > 5.52 | 50 to 150 | > 5.52 | CCC1(C(=O)NS(=O)(=O)c2cccc3c2CCCC3)CCc2c(Cl)cccc21 (stereo not drawn) [II-79] |
| ++ (≥150 and <350) | 5.00 to 5.52 | < 50 | ≤ 5.00 | CCC1(C(=O)NS(=O)(=O)c2ccc(C3CCC3)c3ccccc23)CCc2c(C3CCC3)cccc21 (stereo not drawn) [II-82] |
| ++ (≥150 and <350) | 5.00 to 5.52 | 50 to 150 | 5.00 to 5.52 | CCC1(C(=O)NS(=O)(=O)c2cccc3c(C4CCC4)cccc23)CCc2c(C3CCC3)cccc21 (stereo not drawn) [II-83] |
| ++ (≥150 and <350) | 5.00 to 5.52 | 50 to 150 | 5.00 to 5.52 | O=C(NS(=O)(=O)c1cccc2ccccc12)C1CCCc2c(OCC3CCCCC3)ccc(Br)c21 (stereo not drawn) [II-84] |
| ++ (≥150 and <350) | 5.00 to 5.52 | < 50 | 5.00 to 5.52 | COc1cccc(COc2ccc(Br)c3c2CCCC3C(=O)NS(=O)(=O)c2cccc3ccccc23)c1 (stereo not drawn) [II-85] |
| ++ (≥150 and <350) | 5.00 to 5.52 | < 50 | ≤ 5.00 | COc1cccc(COc2ccc(Br)c3c2CCCC3C(=O)N(Cc2cccc(OC)c2)S(=O)(=O)c2cccc3ccccc23)c1 (stereo not drawn) [II-86] |
| ++ (≥150 and <350) | > 5.52 | < 50 | > 5.52 | CCOC(=O)COc1ccc(Br)c2c1CCCC2C(=O)NS(=O)(=O)c1cccc2ccccc12 (stereo not drawn) [II-87] |
| +++ (≥350) | > 5.52 | 50 to 150 | 5.00 to 5.52 | O=C(NS(=O)(=O)c1cccc2ccccc12)C1CCCc2c(OC3CCCC3)ccc(Br)c21 (stereo not drawn) [II-88] |
| ++ (≥150 and <350) | 5.00 to 5.52 | 50 to 150 | 5.00 to 5.52 | O=C(NS(=O)(=O)c1cccc2ccccc12)C1CCCc2c(OCc3ccccc3)ccc(Br)c21 (stereo not drawn) [II-89] |
| + (<150) | ≤ 5.00 | < 50 | ≤ 5.00 | O=C(C1CCCc2c(OCc3ccccc3)ccc(Br)c21)N(Cc1ccccc1)S(=O)(=O)c1cccc2ccccc12 (stereo not drawn) [II-90] |
| +++ (≥350) | > 5.52 | 50 to 150 | 5.00 to 5.52 | O=C(NS(=O)(=O)c1cccc2ccccc12)C1CCCc2c(OC3COC3)ccc(Br)c21 (stereo not drawn) [II-91] |
| ++ (≥150 and <350) | > 5.52 | < 50 | 5.00 to 5.52 | O=C(NS(=O)(=O)c1cccc2ccccc12)C1CCCc2c(OC3CCOCC3)ccc(Br)c21 (stereo not drawn) [II-92] |
| + (<150) | > 5.52 | < 50 | ≤ 5.00 | CC(C)(O)COc1ccc(Br)c2c1CCCC2C(=O)NS(=O)(=O)c1cccc2ccccc12 (stereo not drawn) [II-93] |
| +++ (≥350) | > 5.52 | ≥ 150 | 5.00 to 5.52 | COc1cc2c(c(OC)c1)C(C(=O)NS(=O)(=O)c1cccc3ccccc13)CCC2 (stereo not drawn) [II-94] |
| +++ (≥350) | > 5.52 | ≥ 150 | > 5.52 | COc1ccc(/C=C/c2ccccc2)c2c1CCCC2C(=O)NS(=O)(=O)c1cccc2ccccc12 (stereo not drawn) [II-96] |
| +++ (≥350) | > 5.52 | ≥ 150 | > 5.52 | COc1ccc(-c2cccc3c2OC(F)(F)O3)c2c1CCCC2C(=O)NS(=O)(=O)c1cccc2ccccc12 (stereo not drawn) [II-97] |
| +++ (≥350) | > 5.52 | ≥ 150 | > 5.52 | COc1ccc(-c2ccc(C)cc2F)c2c1CCCC2C(=O)NS(=O)(=O)c1cccc2ccccc12 (stereo not drawn) [II-98] |
| +++ (≥350) | > 5.52 | ≥ 150 | > 5.52 | COc1ccc(-c2ccccc2Oc2ccccc2)c2c1CCCC2C(=O)NS(=O)(=O)c1cccc2ccccc12 (stereo not drawn) [II-99] |

| Maximum % activity (with co-corrector) (F508delCFTR [1]) | pEC50 (F508delCFTR [1]) | Emax (F508delCFTR [2]) [%] | pEC50 (F508delCFTR [2]) | Structure (SMILES) |
| --- | --- | --- | --- | --- |
| +++ (≥350) | 5.00 to 5.52 | 50 to 150 | 5.00 to 5.52 | CCC1(C(=O)NS(=O)(=O)c2cccc(Br)c2C)CCc2c(Cl)cccc21 (stereo not drawn) [II-100] |
| ++ (≥150 and <350) | > 5.52 | < 50 | > 5.52 | CCC1(C(=O)NS(=O)(=O)c2cccc(F)c2C)CCc2c(Cl)cccc21 (stereo not drawn) [II-101] |
| ++ (≥150 and <350) | > 5.52 | < 50 | 5.00 to 5.52 | CCC1(C(=O)NS(=O)(=O)c2ccccc2COC)CCc2c(Cl)cccc21 (stereo not drawn) [II-102] |
| + (<150) | > 5.52 | < 50 | ≤ 5.00 | CCC1(C(=O)NS(=O)(=O)c2cccc(F)c2F)CCc2c(Cl)cccc21 (stereo not drawn) [II-103] |
| ++ (≥150 and <350) | > 5.52 | < 50 | > 5.52 | CCC1(C(=O)NS(=O)(=O)c2ccccc2OCC(F)F)CCc2c(Cl)cccc21 (stereo not drawn) [II-104] |
| + (<150) | > 5.52 | < 50 | ≤ 5.00 | CCC1(C(=O)NS(=O)(=O)c2cccc3nccnc23)CCc2c(Cl)cccc21 (stereo not drawn) [II-105] |
| ++ (≥150 and <350) | > 5.52 | < 50 | ≤ 5.00 | CCC1(C(=O)NS(=O)(=O)c2cccc(Cl)c2F)CCc2c(Cl)cccc21 (stereo not drawn) [II-106] |
| ++ (≥150 and <350) | > 5.52 | < 50 | > 5.52 | CCC1(C(=O)NS(=O)(=O)c2cccc(Cl)c2Cl)CCc2c(Cl)cccc21 (stereo not drawn) [II-107] |
| +++ (≥350) | > 5.52 | 50 to 150 | 5.00 to 5.52 | CCC1(C(=O)NS(=O)(=O)c2cn(C)c3ccccc23)CCc2c(Cl)cccc21 (stereo not drawn) [II-108] |
| +++ (≥350) | 5.00 to 5.52 | ≥ 150 | 5.00 to 5.52 | COc1ccc(CCC2OCCCO2)c2c1C(C(=O)NS(=O)(=O)c1cccc3ccccc13)CCC2 (stereo not drawn) [II-109] |
| +++ (≥350) | > 5.52 | ≥ 150 | 5.00 to 5.52 | COc1ccc(C#N)c2c1C(C(=O)NS(=O)(=O)c1cccc3ccccc13)CC2 (stereo not drawn) [II-110] |
| +++ (≥350) | > 5.52 | ≥ 150 | 5.00 to 5.52 | COc1ccc(C#N)c2c1C(C(=O)NS(=O)(=O)c1cccc3ccccc13)CCC2 (stereo not drawn) [II-111] |
| ++ (≥150 and <350) | > 5.52 | < 50 | 5.00 to 5.52 | CCC1(C(=O)NS(=O)(=O)c2cccc(C3CCC3)c2C)CCc2c(Cl)cccc21 (stereo not drawn) [II-112] |
| +++ (≥350) | > 5.52 | ≥ 150 | 5.00 to 5.52 | CCC1(C(=O)NS(=O)(=O)c2cccc3cnccc23)CCc2c(Cl)cccc21 (stereo not drawn) [II-113] |
| +++ (≥350) | 5.00 to 5.52 | ≥ 150 | 5.00 to 5.52 | COc1cccc2c1C(C(=O)NS(=O)(=O)c1cccc3ccccc13)C2 (stereo not drawn) [II-114] |
| +++ (≥350) | 5.00 to 5.52 | ≥ 150 | 5.00 to 5.52 | COc1ccc(Br)c2c1C(C(=O)NS(=O)(=O)c1cccc3cccnc13)CC2 (stereo not drawn) [II-116] |
| +++ (≥350) | > 5.52 | ≥ 150 | 5.00 to 5.52 | COc1ccc(Br)c2c1C(C(=O)NS(=O)(=O)c1ccc(F)c3ncccc13)CC2 (stereo not drawn) [II-117] |
| +++ (≥350) | > 5.52 | ≥ 150 | 5.00 to 5.52 | CCC1(C(=O)NS(=O)(=O)c2cccc3ccccc23)Cc2cccc(OC)c21 (stereo not drawn) [II-118] |
| +++ (≥350) | 5.00 to 5.52 | ≥ 150 | 5.00 to 5.52 | COc1ccc(-c2cccc(OC(F)(F)F)c2)c2c1C(C(=O)NS(=O)(=O)c1cccc3ccccc13)CCC2 (stereo not drawn) [II-119] |
| ++ (≥150 and <350) | 5.00 to 5.52 | < 50 | 5.00 to 5.52 | COc1ccc(/C=C/c2ccccc2)c2c1C(C(=O)NS(=O)(=O)c1cccc3ccccc13)CCC2 (stereo not drawn) [II-120] |
| +++ (≥350) | > 5.52 | ≥ 150 | 5.00 to 5.52 | COc1ccc(C2=CCOCC2)c2c1C(C(=O)NS(=O)(=O)c1cccc3ccccc13)CCC2 (stereo not drawn) [II-121] |
